Test results reported in US8486962B2, “Antifungal agents” (F2G Ltd., priority 2005, dated 2013).
≈ marks a conversion by molar mass, not a printed value. Where two headings read alike, the source gives them in different places.

Tests used:
A Terreus 49 = assay: MIC, YAG medium, A Terreus 49; type: cell-based, Aspergillus terreus; conditions: YAG medium; for MIC: Aspergillus terreus, read-out: MIC A Terreus 49
Method: Measurement of Minimum Inhibitory Concentrations (MICs)
Between 1 and 5 mgs of compound were accurately weighed out into a sterile Eppendorf tube. The compound was dissolved in DMSO to give a solution containing 5 mg/ml. Tubes were stored at −20° C. until required.
On the day of testing thawed solutions were vortex mixed to ensure homogeneity. 30 μl of solution was removed and added to 570 μl of sterile water in a separate sterile Eppendorf. The thoroughly mixed solution was used to prepare a series of doubling dilutions in water, in a deep well plate. Eleven replicate plates were prepared using a Minitrak by aspirating 20 μl from each well into eleven clear polystyrene 96 well plates.
Spores of Aspergillus spp (Aspergillus fumigatus, Aspergillus terreus, Aspergillus niger and Aspergillus flavus) were harvested from cultures grown on Sabarauds agar for 5 days, and resuspended in PBS/Tween 80 to approx 1×10^7 cfu/ml Other filamentous fungi (Fusarium solani, Scedosporium spp., Trichophyton spp., Absidia corymbifera), were grown on Sabarauds agar for 2-10 days and spores/hyphae resuspended in PBS/Tween to give approx 1×10^7 cfU/ml. Candida species (Candida albicans, Candida glabrata, Candida krusei, Candida parapsilosis and Candida tropicalis) were grown on Sabarauds agar, cells were harvested from the agar using a sterile loop and resuspended in PBS/Tween 80 to approx 1×10^6 cfu/ml. Each organism suspension was diluted in RPMI medium, containing 2% glucose and 0.135M MOPS buffer (pH7.0) to 2×10^4 cfu/ml for Aspergillus spp and other filamentous fungi and 2×10^3 cfu/ml for yeast. 80 μl of an organism suspension was added to each well of the plate containing drug dilutions.
This produced MIC plates with a drug range 50-0.05 mg/L and organism inocula of 1-2×10^4 cfu/ml for Aspergillus spp and other filamentous fungi and 1-2×10^3 cfu/ml for yeasts. All plates were incubated for 24-48 hrs at 35° C. Growth was assessed by monitoring the optical density at 485 nm for each well. The MIC of a compound is the lowest drug concentration that inhibits growth of an organism by >80% compared with a drug free control. MICs are recorded as mg/L. Other growth media can be used for susceptibility testing, and the activity of the described compounds can also be assessed in a medium comprising, 1% glucose, 1% ammonium chloride and 0.5% yeast extract (YAG medium). To perform MIC tests in this medium, dilutions of compounds are prepared in microtitre plates as described above. Fungal strains to be tested are grown and harvested in an identical manner to that described above, each organism suspension is then diluted in YAG medium to 2×10^4 cfu/ml for Aspergillus spp and other filamentous fungi and 2×10^3 cfu/ml for yeast. 80 μl of an organism suspension was added to each well of the plate containing drug dilutions. This produced MIC plates with a drug range 50-0.05 mg/L and organism inocula of 1-2×10^4 cfu/ml for Aspergillus spp and other filamentous fungi and 1-2×10^3 cfu/ml for yeasts. All plates were incubated for 24 hrs at 35° C. Growth was assessed by monitoring the optical density at 485 nm for each well. The MIC of a compound is the lowest drug concentration that inhibits growth of an organism by >70% compared with a drug free control. MICs are recorded as mg/L. In cases where the MIC of an organism is […]0.05 mg/L the MIC is repeated using a concentration range of 0.5-0.0005 mg/L. MIC tests in YAG medium have more clear-cut endpoints and have slightly lower MICS than those performed in RPMI medium.
The following organisms were tested: Aspergillus fumigatus AF293 and Aspergillus fumigatus AF210, Aspergillus niger, Aspergillus terreus, Aspergillus favus, Candida albicans, Candida krusei, Candida tropicalis, Candida glabrata, Candida parapsilosis, Trichophyton rubrum, Trichophyton mentagrophytes, Scedosporium prolificans, Scedosporium apiospermum, Absidia corymbifera, Fusarium solani.

Aspergillus niger = assay: MIC, YAG medium, Aspergillus niger; type: cell-based; conditions: YAG medium; for MIC: Aspergillus niger
Outline: (§1)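 Doubling dilutions (50-0.05 mg/L) were tested against Candida in RPMI with 2% glucose and 0.135M MOPS, pH7.0, at 1-2×10^3 cfu/ml for 24-48 hrs, 35° C; MIC is >80% inhibition at OD485. Aspergillus in YAG medium at 1-2×10^4 cfu/ml for 24 hrs was scored at >70% inhibition; low MICs were retested over 0.5-0.0005 mg/L.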

[1] = tested on: Aspergillus fumigatus AF210; assay: MIC, YAG medium, Aspergillus fumigatus AF210; type: cell-based; conditions: YAG medium; for MIC: Aspergillus fumigatus, AF210, read-out: MIC A Fum. 210
Outline: as §1

Aspergillus terreus = assay: MIC, YAG medium, Aspergillus terreus; type: cell-based; conditions: YAG medium; for MIC: Aspergillus terreus
Outline: as §1

Aspergillus flavus = assay: MIC, YAG medium, Aspergillus flavus; type: cell-based; conditions: YAG medium; for MIC: Aspergillus flavus
Outline: as §1

[2] = tested on: Aspergillus fumigatus AF293; assay: MIC, YAG medium, Aspergillus fumigatus AF293; type: cell-based; conditions: YAG medium; for MIC: Aspergillus fumigatus, AF293, read-out: MIC A Fum. 293
Outline: as §1

Row | Molecule | MIC (A Terreus 49) [µg/mL] | MIC (Aspergillus niger; read-out: MIC A Niger 1) [µg/mL] | MIC [1] [µg/mL] | MIC (Aspergillus terreus; read-out: MIC A Terreus 4) [µg/mL] | MIC (Aspergillus flavus; read-out: MIC A Flavus 01) [µg/mL] | MIC [2] [µg/mL] | MIC (Aspergillus niger; read-out: MIC A Niger) [µg/mL] | MIC (Aspergillus terreus; read-out: MIC A Terreus) [µg/mL] | MIC (Aspergillus flavus; read-out: MIC A Flavus) [µg/mL] | MIC A Terreus 49 (A Terreus 49) [µg/mL] | MIC A Niger 1 (Aspergillus niger) [µg/mL] | MIC A Fum. 210 [1] [µg/mL] | MIC A Terreus 4 (Aspergillus terreus) [µg/mL] | MIC A Flavus 01 (Aspergillus flavus) [µg/mL] | MIC A Fum. 293 [2] [µg/mL]
1 | COc1ccc(NC(=O)C(=O)c2c(-c3cccs3)cc3ccccn23)c(OC)c1 [Example 166, N-(2,4-Dimethoxy-phenyl)-2-oxo-2-(2-thiophen-2-yl-indolizin-3-yl)-acetamide] | 0.062 (≈ 0.153 µM) | 0.25 (≈ 0.615 µM) | 3.1 (≈ 7.63 µM) | 0.12 (≈ 0.295 µM) | 0.12 (≈ 0.295 µM) | 1.6 (≈ 3.94 µM) |  |  |  |  |  |  |  |  | 
2 | O=C(Nc1ccc(Nc2ncccn2)cc1)C(=O)c1c(-c2ccccc2)cc2ccccn12 [Example 276, 2-Oxo-2-(2-phenyl-indolizin-3-yl)-N-[4-(pyrimidin-2-ylamino)-phenyl]-acetamide] | 0.015 (≈ 0.0346 µM) | 0.05 (≈ 0.115 µM) | 0.2 (≈ 0.461 µM) | 0.05 (≈ 0.115 µM) | 0.05 (≈ 0.115 µM) | 0.1 (≈ 0.231 µM) |  |  |  |  |  |  |  |  | 
3 | O=C(Nc1ccc(Cl)cc1Cl)C(=O)c1c(-c2ccccc2)cc2ccccn12 [Example 305, N-(2,4-Dichloro-phenyl)-2-oxo-2-(2-phenyl-indolizin-3-yl)-acetamide] | 0.015 (≈ 0.0367 µM) |  | 0.5 (≈ 1.22 µM) |  |  | 0.5 (≈ 1.22 µM) | 0.015 (≈ 0.0367 µM) | 0.031 (≈ 0.0757 µM) | 0.062 (≈ 0.151 µM) |  |  |  |  |  | 
4 | COc1ccc(NC(=O)C(=O)c2c(-c3ccccc3)cc3ccccn23)c(OC)c1 [Example 145, N-(2,4-Dimethoxy-phenyl)-2-oxo-(2-phenyl-indolizin-3-yl)-acetamide] | 0.004 (≈ 0.00999 µM) | 0.031 (≈ 0.0774 µM) | 0.5 (≈ 1.25 µM) | 0.031 (≈ 0.0774 µM) | 0.031 (≈ 0.0774 µM) | 0.5 (≈ 1.25 µM) |  |  |  |  |  |  |  |  | 
5 | COc1ccc(NC(=O)C(=O)c2c(-c3cccs3)cc3ccccn23)cn1 [Example 167, N-(6-Methoxy-pyridin-3-yl)-2-oxo-2-(2-thiophen-2-yl-indolizin-3-yl)-acetamide] | 0.062 (≈ 0.164 µM) | 0.5 (≈ 1.32 µM) | 1.6 (≈ 4.24 µM) | 0.25 (≈ 0.662 µM) | 0.062 (≈ 0.164 µM) | 1.6 (≈ 4.24 µM) |  |  |  |  |  |  |  |  | 
6 | O=C(Nc1ccccc1F)C(=O)c1c(-c2ccccc2)cc2ccccn12 [Example 201, N-(2-Fluoro-phenyl)-2-oxo-2-(2-phenyl-indolizin-3-yl)-acetamide] | 0.015 (≈ 0.0419 µM) | 0.015 (≈ 0.0419 µM) | 0.25 (≈ 0.698 µM) | 0.015 (≈ 0.0419 µM) | 0.12 (≈ 0.335 µM) | 0.5 (≈ 1.4 µM) |  |  |  |  |  |  |  |  | 
7 | CC(O)c1ccc(NC(=O)C(=O)c2c(-c3ccccc3)cc3ccccn23)cc1 (stereo not drawn) [Example 255, N-[4-(1-Hydroxy-ethyl)-phenyl]-2-oxo-2-(2-phenyl-indolizin-3-yl)-acetamide] | 0.1 (≈ 0.26 µM) | 0.4 (≈ 1.04 µM) | 0.8 (≈ 2.08 µM) | 0.2 (≈ 0.52 µM) | 0.2 (≈ 0.52 µM) | 1.6 (≈ 4.16 µM) |  |  |  |  |  |  |  |  | 
8 | 2-Oxo-2-(2-pyridin-3-yl-indolizin-3-yl)-N-(3-trifluoromethyl-phenyl)-acetamide [Example 223] |  |  |  |  |  |  |  |  |  | 0.031 | 0.5 | 0.25 | 0.12 | 0.062 | 0.5
9 | O=C(Nc1ccc(Nc2nccs2)cc1)C(=O)c1c(-c2ccccc2)cc2ccccn12 [Example 285, 2-Oxo-2-(2-phenyl-indolizin-3-yl)-N-[4-(thiazol-2-ylamino)-phenyl]-acetamide] | 0.03 (≈ 0.0684 µM) | 0.05 (≈ 0.114 µM) | 0.8 (≈ 1.82 µM) | 0.05 (≈ 0.114 µM) | 0.05 (≈ 0.114 µM) | 0.4 (≈ 0.912 µM) |  |  |  |  |  |  |  |  | 
10 | Cc1ccc(NC(=O)C(=O)c2c(-c3ccccc3)cc3ccccn23)cc1 [Example 135, 2-Oxo-2-(2-phenyl-indolizin-3-yl)-N-p-tolyl-acetamide] | 0.002 (≈ 0.00564 µM) | 0.015 (≈ 0.0423 µM) | 0.062 (≈ 0.175 µM) | 0.008 (≈ 0.0226 µM) | 0.015 (≈ 0.0423 µM) | 0.12 (≈ 0.339 µM) |  |  |  |  |  |  |  |  | 
11 | O=C(Nc1ccc(N2CCCCC2)cc1)C(=O)c1c(-c2ccccc2)cc2ccccn12 [Example 307, 2-Oxo-2-(2-phenyl-indolizin-3-yl)-N-(4-piperidin-1-yl-phenyl)-acetamide] | 0.001 (≈ 0.00236 µM) |  | 0.05 (≈ 0.118 µM) |  |  | 0.008 (≈ 0.0189 µM) | 0.008 (≈ 0.0189 µM) | 0.002 (≈ 0.00472 µM) | 0.008 (≈ 0.0189 µM) |  |  |  |  |  | 
12 | Cc1ccc(NC(=O)C(=O)c2c(-c3ccc(F)cc3)cc3ccccn23)cc1 [Example 156, 2-[2-(4-Fluoro-phenyl)-indolizin-3-yl]-2-oxo-N-p-tolyl-acetamide] | 0.015 (≈ 0.0403 µM) | 0.031 (≈ 0.0832 µM) | 0.25 (≈ 0.671 µM) | 0.031 (≈ 0.0832 µM) | 0.015 (≈ 0.0403 µM) | 0.25 (≈ 0.671 µM) |  |  |  |  |  |  |  |  | 
13 | CC(C)c1ccc(NC(=O)C(=O)c2c(-c3ccccc3)cc3ccccn23)cc1 [Example 252, N-(4-Isopropyl-phenyl)-2-oxo-2-(2-phenyl-indolizin-3-yl)-acetamide] | 0.002 (≈ 0.00523 µM) | 0.004 (≈ 0.0105 µM) | 0.062 (≈ 0.162 µM) | 0.008 (≈ 0.0209 µM) | 0.015 (≈ 0.0392 µM) | 0.008 (≈ 0.0209 µM) |  |  |  |  |  |  |  |  | 
14 | CCOC(=O)C(C)(Cc1ccccc1)NC(=O)C(=O)c1c(-c2ccccc2)cc2ccccn12 (stereo not drawn) [Example 249, 2-Methyl-2-[2-oxo-2-(2-phenyl-indolizin-3-yl)-acetylamino]-3-phenyl-propionic acid ethyl ester] | 1.6 (≈ 3.52 µM) | 6.25 (≈ 13.8 µM) | 1.6 (≈ 3.52 µM) | 1.6 (≈ 3.52 µM) | > 50 | 0.8 (≈ 1.76 µM) |  |  |  |  |  |  |  |  | 
15 | C=CCc1c(F)ccc(NC(=O)C(=O)c2c(-c3ccccc3)cc3ccccn23)c1OC [Example 254, N-(3-Allyl-4-fluoro-2-methoxy-phenyl)-2-oxo-2-(2-phenyl-indolizin-3-yl)-acetamide] | 0.2 (≈ 0.467 µM) | 0.4 (≈ 0.934 µM) | 0.8 (≈ 1.87 µM) | 0.1 (≈ 0.233 µM) | 0.4 (≈ 0.934 µM) | 1.6 (≈ 3.73 µM) |  |  |  |  |  |  |  |  | 
